Where two headings read alike, the source gives them in different places.
Columns and labels:
[1] = Tissue distribution of 14C-C3 in mice; design: species or system C57BL/6J mice; conditions: mouse, in vivo
[2] = C3 partitioning and plasma protein binding in mouse blood and plasma; assay type: in vitro ADME
[3] = Stability of C3 in solutions at pH 1 or pH 10; assay type: physicochemical; conditions: pH 1 or pH 10 for >24 h at 37°C
[4] = tested on: pregnant mouse dams; conditions: in vivo; cited from earlier work
[5] = mouse, in vivo
[6] = mouse, in vivo; for V (volume of distribution): 1.1 mg/kg
[7] = 10 or 100 μg/ml, 3000 mwco centricon filter

e,e,e, tris malonic acid C60 [C3]
tissue radioactivity, 7-day pump vs single bolus dose, adjusted for dose [1]: 5 times | 14C-C3 in the filtrate of the saline control [2, 7]: 73% | 14C-C3 in the plasma filtrate (free) [2, 7]: 13% | fraction of blood C3 in the plasma fraction ([2]; blood from treated animals and naïve blood spiked with 14C-C3, centrifugation): > 99% | protein bound ([2]; mouse plasma, 10 or 100 μg/ml, mean ± SEM): 87 ± 0.1% | stability in solution [3]: a small fraction of carboxylic acid head-groups were removed, but the cyclopropane carbons were intact | effects on fertility, pregnancy, viability or anatomy of the offspring [4]: failed to find any effects | brain uptake [5]: 10 % of the administered dose | V (volume of distribution) ([6]; ip): 0.91 ± 0.12 L/kg | V (volume of distribution) ([6]; iv): 0.85 ± 0.08 L/kg | Oral bioavailability ([6]; po): ~ 10 % of the i.v. administration

— publication PMC6128740 (European journal of drug metabolism and pharmacokinetics, 2018)
